Measurements taken from US9695155B2, “Herbicidal substituted pyrimidinyloxy benzene compounds” (E. I. DU PONT DE NEMOURS AND COMPANY, priority 2013, dated 2017).

Legend:
corn = assay: Test C preemergence; format: in vivo, Zea mays; conditions: for Corn plant response rating: preemergence; for Plant response rating, Corn: Preemergence, 31 g ai/ha, scale 0 to 100, 0 no effect, 100 complete control
How it was run: (§1)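 Visual injury score versus untreated controls, 0 = no effect, 100 = complete control, taken 13 to 15 days after treatment in the greenhouse. Pre-emergence pots held loam/sand; post-emergence plants grew in sphagnum peat/vermiculite mix and were sprayed at the 1- to 4-leaf stage.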

barnyardgrass = assay: Test A postemergence; format: in vivo, Echinochloa crus-galli
How it was run: (§2)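 Compounds in non-phytotoxic solvent with surfactant applied as soil spray preemergence, or postemergence to plants 2-10 cm at one- to two-leaf stage, in loam/sand. After approximately 10 days in greenhouse, injury rated visually versus untreated controls, 0 (no effect) to 100 (complete control).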

wheat, winter = assay: Test C postemergence; format: in vivo, Triticum aestivum; conditions: for Plant response rating (0 to 100), Wheat: postemergence; for Plant response rating, Wheat: Postemergence, scale 0 to 100 (0 no effect, 100 complete control)
How it was run: as §1

morningglory [1] = assay: Test C postemergence; format: in vivo, Ipomoea coccinea; conditions: for Plant response rating (0 to 100), Morningglory: postemergence; for Plant response rating, Morningglory: Postemergence, scale 0 to 100 (0 no effect, 100 complete control)
How it was run: as §1

velvetleaf [2] = assay: Test A postemergence; format: in vivo, Abutilon theophrasti; conditions: 0 to 100 scale where 0 is no effect and 100 is complete control
How it was run: as §2

morningglory [3] = assay: Test C preemergence; format: in vivo, Ipomoea coccinea; conditions: for Morningglory plant response rating: preemergence; for Plant response rating, Morningglory: Preemergence, 31 g ai/ha, scale 0 to 100, 0 no effect, 100 complete control
How it was run: as §1

waterhemp = assay: Test C preemergence; format: in vivo, Amaranthus rudis; conditions: for Waterhemp plant response rating: preemergence; for Plant response rating, Waterhemp: Preemergence, 31 g ai/ha, scale 0 to 100, 0 no effect, 100 complete control
How it was run: as §1

galium = assay: Test C postemergence; format: in vivo, Galium aparine; conditions: for Plant response rating, Galium: Postemergence
How it was run: as §1

velvetleaf [4] = assay: Test C preemergence; format: in vivo, Abutilon theophrasti; conditions: for Velvetleaf plant response rating: preemergence; for Plant response rating, Velvetleaf: Preemergence, 31 g ai/ha, scale 0 to 100, 0 no effect, 100 complete control
How it was run: as §1

yellow nutsedge = assay: Test C postemergence; format: in vivo, Cyperus esculentus; conditions: for Plant response rating (0 to 100), Nutsedge, Yellow: postemergence; for Plant response rating, Nutsedge, Yellow: Postemergence, scale 0 to 100 (0 no effect, 100 complete control)
How it was run: as §1

wheat = assay: Test A postemergence; format: in vivo, Triticum aestivum; conditions: 0 to 100 scale where 0 is no effect and 100 is complete control
How it was run: as §2

giant foxtail [5] = assay: Test C postemergence; format: in vivo, Setaria faberii; conditions: for Plant response rating, Foxtail, Giant: Postemergence
How it was run: as §1

sedge, umbrella = assay: Test B flooded paddy test; format: in vivo, Cyperus difformis; conditions: Flood, 250 g ai/ha; 0 to 100 scale where 0 is no effect and 100 is complete control
How it was run: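 2-leaf stage plants; pots flooded to 3 cm, compound added to paddy water, depth maintained. Greenhouse 13–15 d. Visual rating vs untreated controls, 0 (no effect) to 100 (complete control); dash = no result.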

ragweed = assay: Test C postemergence; format: in vivo, Ambrosia elatior; conditions: for Plant response rating (0 to 100), Ragweed: postemergence; for Plant response rating, Ragweed: Postemergence, scale 0 to 100 (0 no effect, 100 complete control)
How it was run: as §1

giant foxtail [6] = assay: Test A preemergence; format: in vivo, Setaria faberii; conditions: for Plant response rating, Foxtail, Giant: 125 g ai/ha, 0 to 100 scale where 0 is no effect and 100 is complete control; for Foxtail, Giant plant response rating: 500 g ai/ha, 0 to 100 scale, 0 no effect, 100 complete control, approx. 10 days
How it was run: as §2

[7] = 16 g ai/ha, scale 0 to 100 (0 no effect, 100 complete control)
[8] = 62 g ai/ha, scale 0 (no effect) to 100 (complete control)
[9] = 125 g ai/ha, scale 0 (no effect) to 100 (complete control)
[10] = 125 g ai/ha, 0 to 100 scale where 0 is no effect and 100 is complete control
[11] = 16 g ai/ha, postemergence, visual rating, scale 0 to 100 (0 no effect, 100 complete control), 13 to 15 days
[12] = 31 g ai/ha, scale 0 to 100 (0 no effect, 100 complete control), 13 to 15 days
[13] = 62 g ai/ha, scale 0 to 100 (0 no effect, 100 complete control)
[14] = 250 g ai/ha, scale 0 (no effect) to 100 (complete control)

CCOc1cnn(-c2c(C#N)cccc2Oc2ncc(Cl)cn2)c1 [Compound 92]
Corn plant response rating (corn; [7]): 0 | Corn plant response rating (corn; [8]): 5 | Corn plant response rating (corn; [9]): 65 | Plant response rating, Corn (corn): 0 | Plant response rating, Barnyardgrass (barnyardgrass; [10]): 90 | Plant response rating, Barnyardgrass (barnyardgrass; 500 g ai/ha, 0 to 100 scale where 0 is no effect and 100 is complete control): 100 | Plant response rating (0 to 100), Wheat (wheat, winter; 125 g ai/ha): 5 | Plant response rating, Wheat (wheat, winter; 31 g ai/ha, 13 to 15 days): 0 | Plant response rating, Wheat (wheat, winter; 62 g ai/ha): 0 | Plant response rating (0 to 100), Morningglory (morningglory [1]; 125 g ai/ha): 85 | Plant response rating, Morningglory (morningglory [1]; 31 g ai/ha, 13 to 15 days): 85 | Plant response rating, Morningglory (morningglory [1]; 62 g ai/ha): 90 | Plant response rating, Velvetleaf (velvetleaf [2]; 125 g ai/ha): 100 | Plant response rating, Velvetleaf (velvetleaf [2]; 500 g ai/ha): 100 | Morningglory plant response rating (morningglory [3]; [7]): 10 | Morningglory plant response rating (morningglory [3]; [8]): 98 | Morningglory plant response rating (morningglory [3]; [9]): 98 | Plant response rating, Morningglory (morningglory [3]): 25 | Waterhemp plant response rating (waterhemp; [7]): 95 | Waterhemp plant response rating (waterhemp; [8]): 100 | Waterhemp plant response rating (waterhemp; [9]): 100 | Plant response rating, Waterhemp (waterhemp): 98 | Galium plant response rating (galium; [11]): 70 | Plant response rating (0 to 100), Galium (galium; 125 g ai/ha, postemergence): 80 | Plant response rating, Galium (galium; [12]): 80 | Plant response rating, Galium (galium; [13]): 65 | Velvetleaf plant response rating (velvetleaf [4]; [7]): 30 | Velvetleaf plant response rating (velvetleaf [4]; [8]): 100 | Velvetleaf plant response rating (velvetleaf [4]; [9]): 100 | Plant response rating, Velvetleaf (velvetleaf [4]): 90 | Plant response rating (0 to 100), Nutsedge, Yellow (yellow nutsedge; 125 g ai/ha): 5 | Plant response rating, Nutsedge, Yellow (yellow nutsedge; 31 g ai/ha, 13 to 15 days): 5 | Plant response rating, Nutsedge, Yellow (yellow nutsedge; 62 g ai/ha): 5 | Plant response rating, Wheat (wheat; 125 g ai/ha): 60 | Plant response rating, Wheat (wheat; 500 g ai/ha): 70 | Foxtail, Giant plant response rating (giant foxtail [5]; [11]): 5 | Plant response rating (0 to 100), Foxtail, Giant (giant foxtail [5]; 125 g ai/ha, postemergence): 10 | Plant response rating, Foxtail, Giant (giant foxtail [5]; [12]): 5 | Plant response rating, Foxtail, Giant (giant foxtail [5]; [13]): 5 | Plant response rating, Sedge, Umbrella (sedge, umbrella): 90 | Plant response rating (0 to 100), Ragweed (ragweed; 125 g ai/ha): 55 | Plant response rating, Ragweed (ragweed; 31 g ai/ha, 13 to 15 days): 40 | Plant response rating, Ragweed (ragweed; 62 g ai/ha): 50 | Plant response rating, Foxtail, Giant (giant foxtail [6]): 100 | Foxtail, Giant plant response rating (giant foxtail [6]): 100

N#Cc1cccc(Oc2ncc(F)cn2)c1-n1cc(Cl)cn1 [Compound 73]
Corn plant response rating (corn; [8]): 0 | Corn plant response rating (corn; [9]): 5 | Corn plant response rating (corn; [14]): 70 | Plant response rating, Corn (corn): 0 | Plant response rating, Barnyardgrass (barnyardgrass; [10]): 90 | Plant response rating, Barnyardgrass (barnyardgrass; 500 g ai/ha, 0 to 100 scale, 0 no effect, 100 complete control): 90 | Plant response rating (0 to 100), Wheat (wheat, winter; 125 g ai/ha): 0 | Plant response rating (0 to 100), Wheat (wheat, winter; 250 g ai/ha): 5 | Plant response rating, Wheat (wheat, winter; 31 g ai/ha, 13 to 15 days): 0 | Plant response rating, Wheat (wheat, winter; 62 g ai/ha): 0 | Plant response rating (0 to 100), Morningglory (morningglory [1]; 125 g ai/ha): 85 | Plant response rating (0 to 100), Morningglory (morningglory [1]; 250 g ai/ha): 85 | Plant response rating, Morningglory (morningglory [1]; 31 g ai/ha, 13 to 15 days): 65 | Plant response rating, Morningglory (morningglory [1]; 62 g ai/ha): 65 | Plant response rating, Velvetleaf (velvetleaf [2]; 125 g ai/ha): 100 | Plant response rating, Velvetleaf (velvetleaf [2]; 500 g ai/ha): 100 | Morningglory plant response rating (morningglory [3]; [8]): 45 | Morningglory plant response rating (morningglory [3]; [9]): 95 | Morningglory plant response rating (morningglory [3]; [14]): 98 | Plant response rating, Morningglory (morningglory [3]): 45 | Waterhemp plant response rating (waterhemp; [8]): 100 | Waterhemp plant response rating (waterhemp; [9]): 100 | Waterhemp plant response rating (waterhemp; [14]): 100 | Plant response rating, Waterhemp (waterhemp): 100 | Plant response rating (0 to 100), Galium (galium; 125 g ai/ha, postemergence): 70 | Plant response rating (0 to 100), Galium (galium; 250 g ai/ha, postemergence): 70 | Plant response rating, Galium (galium; [12]): 40 | Plant response rating, Galium (galium; [13]): 55 | Velvetleaf plant response rating (velvetleaf [4]; [8]): 75 | Velvetleaf plant response rating (velvetleaf [4]; [9]): 100 | Velvetleaf plant response rating (velvetleaf [4]; [14]): 100 | Plant response rating, Velvetleaf (velvetleaf [4]): 60 | Plant response rating (0 to 100), Nutsedge, Yellow (yellow nutsedge; 125 g ai/ha): 5 | Plant response rating (0 to 100), Nutsedge, Yellow (yellow nutsedge; 250 g ai/ha): 5 | Plant response rating, Nutsedge, Yellow (yellow nutsedge; 31 g ai/ha, 13 to 15 days): 0 | Plant response rating, Nutsedge, Yellow (yellow nutsedge; 62 g ai/ha): 0 | Plant response rating, Wheat (wheat; 125 g ai/ha): 20 | Plant response rating, Wheat (wheat; 500 g ai/ha): 50 | Plant response rating (0 to 100), Foxtail, Giant (giant foxtail [5]; 125 g ai/ha, postemergence): 10 | Plant response rating (0 to 100), Foxtail, Giant (giant foxtail [5]; 250 g ai/ha, postemergence): 30 | Plant response rating, Foxtail, Giant (giant foxtail [5]; [12]): 0 | Plant response rating, Foxtail, Giant (giant foxtail [5]; [13]): 5 | Plant response rating, Sedge, Umbrella (sedge, umbrella): 85 | Plant response rating (0 to 100), Ragweed (ragweed; 125 g ai/ha): 50 | Plant response rating (0 to 100), Ragweed (ragweed; 250 g ai/ha): 65 | Plant response rating, Ragweed (ragweed; 31 g ai/ha, 13 to 15 days): 30 | Plant response rating, Ragweed (ragweed; 62 g ai/ha): 35 | Plant response rating, Foxtail, Giant (giant foxtail [6]): 100 | Foxtail, Giant plant response rating (giant foxtail [6]): 100
